Patent publication US11053204B2, “Pyrimidinyloxy benzene derivatives as herbicides” (FMC Corporation, priority 2015, dated 2021)

Experiments:
Type in all cases: in vivo
[1] = test system: barnyardgrass (Echinochloa crus-galli); assay: Test B flooded paddy test, plant response rating; settings: 250 g ai/ha; Flood; scale of 0 to 100 where 0 is no effect and 100 is complete control; 13 to 15 days
Summary of the method: (§1)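 Under a constant 3 cm flood, test compounds went directly into the paddy water. Following 13 to 15 days of greenhouse growth, treated species and controls were compared by eye.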

[2] = test system: ducksalad (Heteranthera limosa); assay: Test B flooded paddy test, plant response rating; settings: 250 g ai/ha; Flood; scale of 0 to 100 where 0 is no effect and 100 is complete control; 13 to 15 days
Summary of the method: as §1

[3] = test system: rice (Oryza sativa); assay: Test B flooded paddy test, plant response rating; settings: 250 g ai/ha; Flood; scale of 0 to 100 where 0 is no effect and 100 is complete control; 13 to 15 days
Summary of the method: as §1

[4] = test system: sedge, umbrella (small-flower umbrella sedge, Cyperus difformis); assay: Test B flooded paddy test, plant response rating; settings: 250 g ai/ha; Flood; scale of 0 to 100 where 0 is no effect and 100 is complete control; 13 to 15 days
Summary of the method: as §1

[5] = test system: blackgrass (Alopecurus myosuroides); assay: Test C preemergence, plant response rating; settings: Preemergence
Summary of the method: (§2)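 Both timings shared one formulation, a non-phytotoxic solvent mixture with surfactant, and a greenhouse period of 13 to 15 d. Preemergence used seeded loam/sand or silt loam soil, postemergence used 2 to 18 cm plants; visual ratings ran from 0 (no effect) to 100 (complete control).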

[6] = test system: corn (Zea mays); assay: Test C preemergence, plant response rating; settings: Preemergence
Summary of the method: as §2

[7] = test system: crabgrass, large (large crabgrass, Digitaria sanguinalis); assay: Test C preemergence, plant response rating; settings: Preemergence
Summary of the method: as §2

[8] = test system: foxtail, giant (giant foxtail, Setaria faberii); assay: Test C preemergence, plant response rating; settings: Preemergence
Summary of the method: as §2

[9] = test system: lambsquarters (Chenopodium album); assay: Test C preemergence, plant response rating; settings: Preemergence
Summary of the method: as §2

[10] = test system: morningglory (Ipomoea coccinea); assay: Test C preemergence, plant response rating; settings: Preemergence
Summary of the method: as §2

[11] = test system: nutsedge, yellow (yellow nutsedge, Cyperus esculentus); assay: Test C preemergence, plant response rating; settings: Preemergence
Summary of the method: as §2

[12] = test system: oilseed rape (Brassica napus); assay: Test C preemergence, plant response rating; settings: Preemergence
Summary of the method: as §2

[13] = test system: ragweed (common ragweed, Ambrosia elatior); assay: Test C preemergence, plant response rating; settings: Preemergence
Summary of the method: as §2

[14] = test system: ryegrass, Italian (Italian ryegrass, Lolium multiflorum); assay: Test C preemergence, plant response rating; settings: Preemergence
Summary of the method: as §2

[15] = test system: soybean (Glycine max); assay: Test C preemergence, plant response rating; settings: Preemergence
Summary of the method: as §2

[16] = test system: velvetleaf (Abutilon theophrasti); assay: Test C preemergence, plant response rating; settings: Preemergence
Summary of the method: as §2

[17] = test system: waterhemp (common waterhemp, Amaranthus rudis); assay: Test C preemergence, plant response rating; settings: Preemergence
Summary of the method: as §2

[18] = test system: wheat (winter wheat, Triticum aestivum); assay: Test C preemergence, plant response rating; settings: Preemergence
Summary of the method: as §2

[19] = test system: chickweed (common chickweed, Stellaria media); assay: Test C postemergence, plant response rating; settings: for Chickweed plant response rating: scale 0 to 100 (0 no effect, 100 complete control)
Summary of the method: as §2

[20] = test system: foxtail, giant (giant foxtail, Setaria faberii); assay: Test C postemergence, plant response rating; settings: for Foxtail, Giant plant response rating: scale 0 to 100 (0 no effect, 100 complete control)
Summary of the method: as §2

[21] = test system: morningglory (Ipomoea coccinea); assay: Test C postemergence, plant response rating; settings: for Morningglory plant response rating: scale 0 to 100 (0 no effect, 100 complete control)
Summary of the method: as §2

N#CC(CCCC(F)(F)F)c1ccccc1Oc1ncc(Cl)cn1 (stereo not drawn) [Compound 144]
Plant response rating, Barnyardgrass [1]: 70
Plant response rating, Ducksalad [2]: 100
Plant response rating, Rice [3]: 35
Plant response rating, Sedge, Umbrella [4]: 100
Plant response rating, Blackgrass ([5]; 125 g ai/ha, scale of 0 to 100): 30
Plant response rating, Blackgrass ([5]; 16 g ai/ha, scale 0 to 100): 5
Plant response rating, Blackgrass ([5]; 31 g ai/ha, scale 0 to 100): 10
Plant response rating, Blackgrass ([5]; 62 g ai/ha, scale 0 to 100): 40
Plant response rating, Corn ([6]; 125 g ai/ha, scale of 0 to 100): 30
Plant response rating, Corn ([6]; 16 g ai/ha, scale 0 to 100): 0
Plant response rating, Corn ([6]; 31 g ai/ha, scale 0 to 100): 0
Plant response rating, Corn ([6]; 62 g ai/ha, scale 0 to 100): 5
Plant response rating, Crabgrass, Large ([7]; 125 g ai/ha, scale of 0 to 100): 100
Plant response rating, Crabgrass, Large ([7]; 16 g ai/ha, scale 0 to 100): 85
Plant response rating, Crabgrass, Large ([7]; 31 g ai/ha, scale 0 to 100): 98
Plant response rating, Crabgrass, Large ([7]; 62 g ai/ha, scale 0 to 100): 100
Plant response rating, Foxtail, Giant ([8]; 125 g ai/ha, scale of 0 to 100): 100
Plant response rating, Foxtail, Giant ([8]; 31 g ai/ha, scale 0 to 100): 85
Plant response rating, Foxtail, Giant ([8]; 62 g ai/ha, scale 0 to 100): 100
Plant response rating, Lambsquarters ([9]; 125 g ai/ha, scale of 0 to 100): 75
Plant response rating, Lambsquarters ([9]; 31 g ai/ha, scale 0 to 100): 40
Plant response rating, Lambsquarters ([9]; 62 g ai/ha, scale 0 to 100): 65
Plant response rating, Morningglory ([10]; 125 g ai/ha, scale of 0 to 100): 20
Plant response rating, Morningglory ([10]; 31 g ai/ha, scale 0 to 100): 0
Plant response rating, Morningglory ([10]; 62 g ai/ha, scale 0 to 100): 10
Plant response rating, Nutsedge, Yellow ([11]; 125 g ai/ha, scale of 0 to 100): 70
Plant response rating, Nutsedge, Yellow ([11]; 31 g ai/ha, scale 0 to 100): 20
Plant response rating, Nutsedge, Yellow ([11]; 62 g ai/ha, scale 0 to 100): 60
Plant response rating, Oilseed Rape ([12]; 125 g ai/ha, scale of 0 to 100): 90
Plant response rating, Oilseed Rape ([12]; 31 g ai/ha, scale 0 to 100): 0
Plant response rating, Oilseed Rape ([12]; 62 g ai/ha, scale 0 to 100): 5
Plant response rating, Ragweed ([13]; 125 g ai/ha, scale of 0 to 100): 10
Plant response rating, Ragweed ([13]; 31 g ai/ha, scale 0 to 100): 0
Plant response rating, Ragweed ([13]; 62 g ai/ha, scale 0 to 100): 0
Plant response rating, Ryegrass, Italian ([14]; 125 g ai/ha, scale of 0 to 100): 60
Plant response rating, Ryegrass, Italian ([14]; 31 g ai/ha, scale 0 to 100): 0
Plant response rating, Ryegrass, Italian ([14]; 62 g ai/ha, scale 0 to 100): 0
Plant response rating, Soybean ([15]; 125 g ai/ha, scale of 0 to 100): 60
Plant response rating, Soybean ([15]; 31 g ai/ha, scale 0 to 100): 0
Plant response rating, Soybean ([15]; 62 g ai/ha, scale 0 to 100): 30
Plant response rating, Velvetleaf ([16]; 125 g ai/ha, scale of 0 to 100): 45
Plant response rating, Velvetleaf ([16]; 31 g ai/ha, scale 0 to 100): 0
Plant response rating, Velvetleaf ([16]; 62 g ai/ha, scale 0 to 100): 15
Plant response rating, Waterhemp ([17]; 125 g ai/ha, scale of 0 to 100): 100
Plant response rating, Waterhemp ([17]; 31 g ai/ha, scale 0 to 100): 98
Plant response rating, Waterhemp ([17]; 62 g ai/ha, scale 0 to 100): 98
Plant response rating, Wheat ([18]; 125 g ai/ha, scale of 0 to 100): 5
Plant response rating, Wheat ([18]; 62 g ai/ha, scale 0 to 100): 0
Plant response rating, Chickweed ([19]; 16 g ai/ha, scale of 0 to 100): 50
Plant response rating, Chickweed ([19]; 31 g ai/ha, scale 0 to 100): 55
Chickweed plant response rating ([19]; 62 g ai/ha): 85
Chickweed plant response rating ([19]; 125 g ai/ha): 85
Plant response rating, Foxtail, Giant ([20]; 16 g ai/ha, scale of 0 to 100): 5
Plant response rating, Foxtail, Giant ([20]; 31 g ai/ha, scale 0 to 100): 10
Foxtail, Giant plant response rating ([20]; 62 g ai/ha): 30
Foxtail, Giant plant response rating ([20]; 125 g ai/ha): 40
Plant response rating, Morningglory ([21]; 16 g ai/ha, scale of 0 to 100): 30
Plant response rating, Morningglory ([21]; 31 g ai/ha, scale 0 to 100): 20
Morningglory plant response rating ([21]; 62 g ai/ha): 50
Morningglory plant response rating ([21]; 125 g ai/ha): 60
